Article PMC3525754 (Biochemistry, 2012)

How the values were obtained:
[1] = biological target: T1, DrPRODH (proline dehydrogenase from Deinococcus radiodurans R1) (Deinococcus radiodurans, UniProt Q9RW55); experiment: steady-state CoQ1 reduction, absorbance […] nm; format: biochemical
[2] = biological target: T1, DrPRODH (proline dehydrogenase from Deinococcus radiodurans R1); experiment: X-ray crystal structure, […] Å; format: binding; details: crystal reduced by soaking in 50 mM sodium dithionite
[3] = biological target: T1, DrPRODH (proline dehydrogenase from Deinococcus radiodurans R1); experiment: X-ray crystal structure, […] Å; format: binding; details: oxidized enzyme complexed with THFA; two ribityl conformations

T1 sequence (Q9RW55 whole entry): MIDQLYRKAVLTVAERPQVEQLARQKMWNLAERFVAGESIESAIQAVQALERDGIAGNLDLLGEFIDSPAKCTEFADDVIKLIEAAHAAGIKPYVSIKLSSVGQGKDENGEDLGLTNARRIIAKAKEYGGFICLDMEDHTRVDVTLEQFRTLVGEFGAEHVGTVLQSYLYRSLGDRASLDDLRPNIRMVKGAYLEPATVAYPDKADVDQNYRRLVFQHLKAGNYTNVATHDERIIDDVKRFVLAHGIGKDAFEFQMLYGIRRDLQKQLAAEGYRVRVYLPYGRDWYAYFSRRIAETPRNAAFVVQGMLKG

O=C(O)[C@@H]1CCCO1 [THFA]
Ki [1]: 38 mM

Cc1cc2c(cc1C)N(C[C@H](O)[C@H](O)[C@H](O)COP(=O)(O)OP(=O)(O)OC[C@H]1O[C@@H](n3cnc4c(N)ncnc43)[C@H](O)[C@@H]1O)c1[nH]c(=O)[nH]c(=O)c1N2 [reduced FAD]
X-ray crystal structure, 1.75 Å [2]: The reduced flavin of DrPRODHr exhibits just one ribityl conformation

Cc1cc2nc3c(=O)[nH]c(=O)nc-3n(C[C@H](O)[C@H](O)[C@H](O)COP(=O)(O)OP(=O)(O)OC[C@H]3O[C@@H](n4cnc5c(N)ncnc54)[C@H](O)[C@@H]3O)c2cc1C [FAD]
X-ray crystal structure, 1.36 Å [3]: The oxidized flavin exhibits two conformations
